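Following 48 hours of exposure in 96-well plates, responses at five concentrations were used to interpolate endpoints linearly. Abbreviation: GI50, concentration required for 50% inhibition of growth.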 Active and inactive are the calls of the source. Cut-off read from the data, not from the text of the source: active = GI50 up to about 1.1 µM and inactive = higher.
Assays:
Experiment in all cases: NCI tumour cell line growth inhibition, 48 h
SR = tested on: SR
KM12 = tested on: KM12
ACHN = tested on: ACHN
UACC-257 = tested on: UACC-257
UACC-62 = tested on: UACC-62
KM-20L2 = tested on: KM-20L2
LOX IMVI = tested on: LOX IMVI
HOP-92 = tested on: HOP-92
SK-MEL-5 = tested on: SK-MEL-5
OVCAR-4 = tested on: OVCAR-4
SN12C = tested on: SN12C
HCT-116 = tested on: HCT-116
786-0 = tested on: 786-0
NCI-H460 = tested on: NCI-H460
NCI-H226 = tested on: NCI-H226
OVCAR-3 = tested on: OVCAR-3
HOP-62 = tested on: HOP-62
CAKI-1 = tested on: CAKI-1
MOLT-4 = tested on: MOLT-4
OVCAR-5 = tested on: OVCAR-5
SF-268 = tested on: SF-268
SNB-75 = tested on: SNB-75
SW-620 = tested on: SW-620
M14 = tested on: M14
SF-295 = tested on: SF-295
SNB-19 = tested on: SNB-19
RXF 393 = tested on: RXF 393
U-251 = tested on: U-251
COLO 205 = tested on: COLO 205
EKVX = tested on: EKVX
M19-MEL = tested on: M19-MEL
RPMI-8226 = tested on: RPMI-8226
HT-29 = tested on: HT-29
HOP-18 = tested on: HOP-18
A549 = tested on: A549
UO-31 = tested on: UO-31
LXFL 529 = tested on: LXFL 529
CCRF-CEM = tested on: CCRF-CEM
IGROV-1 = tested on: IGROV-1
TK-10 = tested on: TK-10
SK-OV-3 = tested on: SK-OV-3
DMS-273 = tested on: DMS-273
SF-539 = tested on: SF-539
K562 = tested on: K562
Malme-3M = tested on: Malme-3M
HCT-15 = tested on: HCT-15
OVCAR-8 = tested on: OVCAR-8
NCI-H522 = tested on: NCI-H522
SNB-78 = tested on: SNB-78
SK-MEL-2 = tested on: SK-MEL-2
DLD-1 = tested on: DLD-1
SK-MEL-28 = tested on: SK-MEL-28
HCC 2998 = tested on: HCC 2998
NCI-H23 = tested on: NCI-H23
HL-60 = tested on: HL-60

O=C(c1ccccc1)c1nnc(C(=O)c2ccccc2)nn1
GI50 (SR): 4.45 µM (inactive) | GI50 (KM12): > 344 µM (inactive) | GI50 (ACHN): > 344 µM (inactive) | GI50 (UACC-257): > 344 µM (inactive) | GI50 (UACC-62): > 344 µM (inactive) | GI50 (KM-20L2): > 344 µM (inactive) | GI50 (LOX IMVI): 282 µM (inactive) | GI50 (HOP-92): 166 µM (inactive) | GI50 (SK-MEL-5): > 344 µM (inactive) | GI50 (OVCAR-4): > 344 µM (inactive) | GI50 (SN12C): > 344 µM (inactive) | GI50 (HCT-116): > 344 µM (inactive) | GI50 (786-0): 179 µM (inactive) | GI50 (NCI-H460): > 344 µM (inactive) | GI50 (NCI-H226): > 344 µM (inactive) | GI50 (OVCAR-3): > 344 µM (inactive) | GI50 (HOP-62): > 344 µM (inactive) | GI50 (CAKI-1): > 344 µM (inactive) | GI50 (MOLT-4): > 344 µM (inactive) | GI50 (OVCAR-5): > 344 µM (inactive) | GI50 (SF-268): > 344 µM (inactive) | GI50 (SNB-75): 83.4 µM (inactive) | GI50 (SW-620): > 344 µM (inactive) | GI50 (M14): 272 µM (inactive) | GI50 (SF-295): 139 µM (inactive) | GI50 (SNB-19): > 344 µM (inactive) | GI50 (RXF 393): 151 µM (inactive) | GI50 (U-251): 165 µM (inactive) | GI50 (COLO 205): > 344 µM (inactive) | GI50 (EKVX): > 344 µM (inactive) | GI50 (M19-MEL): > 344 µM (inactive) | GI50 (RPMI-8226): > 344 µM (inactive) | GI50 (HT-29): > 344 µM (inactive) | GI50 (HOP-18): > 344 µM (inactive) | GI50 (A549): > 344 µM (inactive) | GI50 (UO-31): > 344 µM (inactive) | GI50 (LXFL 529): 266 µM (inactive) | GI50 (CCRF-CEM): 265 µM (inactive) | GI50 (IGROV-1): > 344 µM (inactive) | GI50 (TK-10): > 344 µM (inactive) | GI50 (SK-OV-3): 278 µM (inactive) | GI50 (DMS-273): > 344 µM (inactive) | GI50 (SF-539): > 344 µM (inactive) | GI50 (K562): 119 µM (inactive) | GI50 (Malme-3M): > 344 µM (inactive) | GI50 (HCT-15): > 344 µM | GI50 (OVCAR-8): > 344 µM (inactive) | GI50 (NCI-H522): 134 µM (inactive) | GI50 (SNB-78): 170 µM (inactive) | GI50 (SK-MEL-2): > 344 µM (inactive) | GI50 (DLD-1): > 344 µM (inactive) | GI50 (SK-MEL-28): > 344 µM (inactive) | GI50 (HCC 2998): 36.3 µM (inactive) | GI50 (NCI-H23): 308 µM (inactive) | GI50 (HL-60): > 344 µM (inactive)

COc1cc(C(C#N)NNc2nc(C)cc(O)n2)cc(OC)c1OC (stereo unspecified)
GI50 (SR): 37.5 µM (inactive) | GI50 (KM12): > 100 µM (inactive) | GI50 (ACHN): > 100 µM (inactive) | GI50 (UACC-257): > 100 µM (inactive) | GI50 (UACC-62): > 100 µM (inactive) | GI50 (KM-20L2): > 100 µM (inactive) | GI50 (LOX IMVI): > 100 µM (inactive) | GI50 (HOP-92): 51.6 µM (inactive) | GI50 (SK-MEL-5): > 100 µM (inactive) | GI50 (OVCAR-4): > 100 µM (inactive) | GI50 (SN12C): > 100 µM (inactive) | GI50 (HCT-116): > 100 µM (inactive) | GI50 (786-0): > 100 µM (inactive) | GI50 (NCI-H460): > 100 µM (inactive) | GI50 (NCI-H226): > 100 µM (inactive) | GI50 (OVCAR-3): > 100 µM (inactive) | GI50 (HOP-62): > 100 µM (inactive) | GI50 (CAKI-1): > 100 µM (inactive) | GI50 (OVCAR-5): > 100 µM (inactive) | GI50 (SF-268): > 100 µM (inactive) | GI50 (SNB-75): 37.2 µM (inactive) | GI50 (SW-620): > 100 µM (inactive) | GI50 (M14): > 100 µM (inactive) | GI50 (SF-295): > 100 µM (inactive) | GI50 (RXF 393): > 100 µM (inactive) | GI50 (U-251): > 100 µM (inactive) | GI50 (COLO 205): > 100 µM (inactive) | GI50 (M19-MEL): > 100 µM (inactive) | GI50 (RPMI-8226): > 100 µM (inactive) | GI50 (HT-29): > 100 µM (inactive) | GI50 (HOP-18): > 100 µM (inactive) | GI50 (A549): > 100 µM (inactive) | GI50 (UO-31): 75 µM (inactive) | GI50 (LXFL 529): > 100 µM (inactive) | GI50 (CCRF-CEM): > 100 µM (inactive) | GI50 (IGROV-1): > 100 µM (inactive) | GI50 (TK-10): > 100 µM (inactive) | GI50 (SK-OV-3): > 100 µM (inactive) | GI50 (DMS-273): > 100 µM (inactive) | GI50 (SF-539): > 100 µM (inactive) | GI50 (K562): > 100 µM (inactive) | GI50 (Malme-3M): > 100 µM (inactive) | GI50 (HCT-15): > 100 µM | GI50 (OVCAR-8): > 100 µM (inactive) | GI50 (NCI-H522): > 100 µM (inactive) | GI50 (SNB-78): > 100 µM (inactive) | GI50 (SK-MEL-2): > 100 µM (inactive) | GI50 (DLD-1): > 100 µM (inactive) | GI50 (SK-MEL-28): > 100 µM (inactive) | GI50 (NCI-H23): > 100 µM (inactive) | GI50 (HL-60): > 100 µM (inactive)

Source: ChEMBL document CHEMBL1201862, “PubChem BioAssay data set” (2004)
